From PubChem BioAssay AID1996 come the findings set out here.

What is called solubility (kinetic) is the concentration staying in solution when a stock, usually in DMSO, is diluted into the medium.

≈ marks a conversion by molar mass, not a printed value. Bounds are passed on as bounds.

The conditions of the series: buffer; pH 7.4; 200.0 µM.
On to `NC(=O)c1cccc2ccccc12`, for which the solubility (kinetic) was greater than 25.7 µg/mL. Turning to `COC(=O)Cn1c2ccc(Cl)cc2c2nc(C)sc21`, the kinetic solubility turned out to be 35.3 µg/mL (≈ 120 µM). The compound `O=C(NCCc1ccco1)c1ccc(OCc2cn3ccccc3n2)cc1` showed a kinetic solubility greater than 54.2 µg/mL.

Consider `O=c1cnc2ccccc2n1Cc1ccccc1C(F)(F)F`, for which the kinetic solubility was 43.1 µg/mL (≈ 142 µM).

In turn, `CC(Nc1c[nH]c(=O)[nH]c1=O)c1ccccc1` (stereo not drawn) gave a kinetic solubility of 22.3 µg/mL (≈ 96.4 µM). Under `C=CCn1c(NCc2ccc(OC)cc2O)nc2ccccc21` stands 37.9 µg/mL (≈ 123 µM).

On to `CN(C)C(=O)c1cc(C(=O)c2ccc(F)cc2Cl)c[nH]1`, for which the solubility (kinetic) was greater than 44.2 µg/mL.

Turning to `N#Cc1c(Nc2ccc(Cl)cc2)s[nH]c1=O`, the solubility (kinetic) is greater than 37.8 µg/mL.

`O=C(Nc1cc(Cl)ccc1N1CCOCC1)c1ccc(=O)[nH]c1` registered a kinetic solubility of 38.1 µg/mL (≈ 114 µM). Next, `CCc1ccc(C(=O)Nc2cc(C)on2)o1`: greater than 33 µg/mL; `Cc1ccc2oc(=O)cc(CN3CCN(Cc4ccccc4)CC3)c2c1`: 19.5 µg/mL (≈ 56 µM); `COCCN1C(=O)CS/C1=C(/C#N)C(=O)NCc1ccco1`: 41.4 µg/mL (≈ 129 µM). Under `CC(=O)Nc1ccc(C(=O)CN2C(=O)NC3(CCCc4ccccc43)C2=O)c(F)c1` (stereo not drawn) stands 53 µg/mL (≈ 129 µM). Next, `O=C(Nc1ccccc1N1CCCCC1)c1cccc(Cl)c1`: less than 0.3 µg/mL; `CCOC(=O)c1nc(NCc2ccccc2)c2ccccc2n1`: 27.4 µg/mL (≈ 89.1 µM); `COC(=O)c1sccc1NC(=O)Nc1ccc(OC)c(OC)c1`: greater than 50.5 µg/mL. As for `CCCN(CCC)CC(O)COc1ccc2c(c1)OCO2.Cl` (stereo not drawn), the solubility (kinetic) is 45.5 µg/mL. Next, `O=S(=O)(c1ccc(Cl)cc1)N1CCc2ccccc21`: 6.1 µg/mL (≈ 20.8 µM); `Cc1cc(Cl)ccc1OCCCC(=O)NCc1ccccn1`: greater than 47.8 µg/mL. On to `CC1=NN(C(N)=S)C(C)(C)C1`, for which the solubility (kinetic) was greater than 25.7 µg/mL. Next, `C/C(Cc1ccccc1)=N\NC(=O)CNC(=O)c1ccccc1O`: greater than 48.8 µg/mL; `CN(C(=O)/C=C/c1ccccc1)C1CCCCC1`: 35.1 µg/mL (≈ 144 µM); `O=S(=O)(c1ccc(Cl)s1)N1CCCCC1`: 22 µg/mL (≈ 82.8 µM). Under `Cc1ccc(NC(=O)c2cccc3ccccc23)cc1` stands less than 0.6 µg/mL; under `Cc1nc(Nc2ccc3c(c2)OCCO3)c2c(C)c(C)sc2n1`, 3.6 µg/mL (≈ 11 µM). Under `CCOC(=O)C1=C(CBr)NC(=O)NC1C` (stereo not drawn) stands greater than 41.6 µg/mL; under `COc1ccc(C(=O)NC2=Nc3ccccc3N=C(C)C2c2ccccc2)cc1` (stereo not drawn), 22.6 µg/mL (≈ 58.9 µM); under `O=C(NCCc1cccs1)C(c1ccccc1)c1ccccc1`, 1.5 µg/mL (≈ 4.67 µM). The compound `CC1=C/C(=C\C=C(C#N)C#N)N(C)c2ccccc21` registered a solubility (kinetic) of 0.8 µg/mL (≈ 3.23 µM). Under `C=CCN1CCN(C(=O)CSc2ccccc2)CC1` stands greater than 41.5 µg/mL; under `CCCc1ccc(C(C)NC(=S)NC2CCCCC2)cc1` (stereo not drawn), 1.2 µg/mL (≈ 3.94 µM).

For the compound `CS(=O)(=O)N1CCN(Cc2cc(=O)n3ccsc3n2)CC1`, the solubility (kinetic) is greater than 49.3 µg/mL. Under `CCOc1nc(-c2ccccc2)c2cc(Br)ccc2n1` stands less than 0.4 µg/mL; under `O=C(Nc1ccc2c(c1)OCO2)Nc1ccc(F)cc1F`, 0.9 µg/mL (≈ 3.08 µM). Under `O=S(=O)(Nc1cccnc1Cl)c1ccc(F)cc1` stands greater than 43 µg/mL; under `CC12CCC(C(=O)O)(c3nc4cc([N+](=O)[O-])ccc4nc31)C2(C)C` (stereo not drawn), greater than 49.1 µg/mL; under `CCOC(=O)c1cc(C)sc1/N=C/C1C(=O)NC(=S)NC1=O`, 4.7 µg/mL (≈ 13.8 µM). Next, `COc1ccc(CCC(=O)NCc2cn3ccccc3n2)cc1`: greater than 46.4 µg/mL; `Cc1ccc2c(C(=O)CN3CCCCC3)c(C)[nH]c2c1`: greater than 40.6 µg/mL; `N#Cc1c(-c2ccccc2)nc(SCc2ccc([N+](=O)[O-])cc2)[nH]c1=O`: 52 µg/mL (≈ 143 µM). For `Cc1ccc(NC(=O)CN(C)C(=O)c2ccc(Br)o2)cc1`, the kinetic solubility came to 14.1 µg/mL (≈ 40.1 µM). Under `Cc1ccc2c(CN(C)Cc3cccc(F)c3)cc(=O)oc2c1C` stands 2.9 µg/mL (≈ 8.91 µM). With `O=C(CSc1ccccc1)Nc1ccc(Cl)c(S(=O)(=O)N2CCOCC2)c1`, the kinetic solubility turned out to be 14.6 µg/mL (≈ 34.2 µM). Regarding `C=CCn1c(O)c(C(C)=NCC2CCCO2)c(=O)[nH]c1=O` (stereo not drawn), the kinetic solubility is greater than 44 µg/mL. Compound `O=C(/C=C/c1cccs1)c1ccc(N2CCOCC2)cc1` returned a kinetic solubility of 4.8 µg/mL (≈ 16 µM). Under `Cc1ccccc1OCC(=O)OC(C)C(=O)NC1CCCC1` (stereo not drawn) stands greater than 45.8 µg/mL.

Compound `CC(C)(C)C(=O)Nc1cc2c3c(c1)CCN3C(=O)CC2` had a kinetic solubility greater than 40.9 µg/mL. Next, `Cc1cccc(C)c1OC(=O)CN1C(=O)c2ccccc2C1=O`: 0.9 µg/mL (≈ 2.91 µM); `CC1(C)CC(=O)C=C(Nc2ccccc2N)C1`: greater than 34.5 µg/mL; `Fc1ccc(NC(=S)N2CCc3ccccc3C2)c(F)c1`: 37.3 µg/mL (≈ 123 µM). `Cc1cc(Cl)c(Cl)cc1S(=O)(=O)NCCCn1ccnc1` showed a kinetic solubility of 45.2 µg/mL (≈ 130 µM). The solubility kinetic values of the last two compounds are within 1.5-fold of each other. `CCCCC(CC)C1OCC(CN2CCCCC2)O1` (stereo not drawn) came in with a kinetic solubility of 4.3 µg/mL (≈ 16 µM).

Compound `O=C(Nc1ccc([N+](=O)[O-])c(NC(=O)c2cccnc2)c1)c1cccnc1` yielded a solubility (kinetic) of 3.3 µg/mL (≈ 9.08 µM).

As for `Nc1nc(Nc2ccccc2F)nc(NCc2ccccc2)c1[N+](=O)[O-]`, the solubility (kinetic) was less than 0.1 µg/mL. Next, `O=C1C2C3C=CC(CC3)C2C(=O)N1c1ccccc1` (stereo not drawn): 25.9 µg/mL (≈ 102 µM).

The compound `CCn1c(NC(=O)c2ccccc2)nc2ccccc21` showed a kinetic solubility of 3 µg/mL (≈ 11.3 µM). Next, `CC(=O)c1cccc(NC(=S)Nc2ccc(F)cc2)c1`: 30.3 µg/mL (≈ 105 µM). Take `COc1ccccc1OCC(=O)Nc1ccc(NC(=O)COc2ccccc2OC)cc1`: the solubility (kinetic) worked out at 1.4 µg/mL (≈ 3.21 µM). Under `CC(C)[C@H](NC(=O)c1cccc(S(=O)(=O)N2CCOCC2)c1)C(=O)NCc1ccc(F)cc1` stands 8 µg/mL (≈ 16.8 µM); under `CCOC(=O)N1CCN(CC(=O)Nc2ccc(F)cc2)CC1`, greater than 46.4 µg/mL. Under `Cc1cccc(/N=C/C2=C(O)CC(C)(C)CC2=O)n1` stands greater than 38.7 µg/mL; under `O=C(COC(=O)COc1cccc(F)c1)Nc1nc2ccccc2s1`, 45.1 µg/mL (≈ 125 µM). Next, `CC(C)c1ccccc1OCCCCCN1CCOCC1`: 25.8 µg/mL (≈ 88.5 µM). In the case of `Cc1ccc2nc(SCC(=O)Nc3cc(C)on3)c(C)cc2c1`, the solubility (kinetic) was less than 0.2 µg/mL. Next, `NC(=O)COc1ccc2oc(=O)cc(-c3cc4ccccc4o3)c2c1`: 1 µg/mL (≈ 2.98 µM); `O=C(CCS(=O)(=O)Cc1ccccc1F)NCc1ccccc1Cl`: 4.3 µg/mL (≈ 11.6 µM).

`O=C(Nc1ccccc1Cl)c1cccc(NC(=O)C2CCCC2)c1` registered a solubility (kinetic) of 26.9 µg/mL (≈ 78.5 µM).

Regarding `Cc1ccc2c(c1)C(O)(CC(=O)c1cccc(-n3cccc3)c1)C(=O)N2` (stereo not drawn), the kinetic solubility was 7.2 µg/mL (≈ 20.8 µM). Under `Cc1ccc(OCCC(=O)OCC(=O)NC2CCCC2)cc1` stands greater than 45.8 µg/mL.

`O=C(O)CCN1C(=O)C2C3c4ccccc4C(c4ccccc43)[C@@H]2C1=O` (stereo partly drawn) gave a solubility (kinetic) of 46.8 µg/mL (≈ 135 µM). Under `Cc1cc(Nc2ccc(C)c(Cl)c2)nc(N2CCOCC2)n1` stands 7.6 µg/mL (≈ 23.8 µM); under `Cn1c(C(O)c2ccc(Br)cc2)nc(Cl)c1Cl` (stereo not drawn), 13.9 µg/mL (≈ 41.4 µM); under `COc1ccc(CNC(=O)c2c(O)c3ccccc3n(C)c2=O)cc1`, less than 0.4 µg/mL. Next, `O=S(=O)(NC1=NCCC1)c1ccc(F)cc1F`: greater than 39 µg/mL; `CN(CC(=O)Nc1c(Cl)cccc1Cl)C(=O)CCC1CCCC1`: 53.4 µg/mL (≈ 149 µM). Under `CCC(=O)OCC(=O)Nc1cc([N+](=O)[O-])ccc1OC` stands 40.9 µg/mL (≈ 145 µM); under `Cn1c(SCC(=O)Nc2nccs2)nnc1C1CC1`, greater than 44.3 µg/mL.

`CN1CCN(Cc2cccc3ncccc23)CC1CCO` (stereo not drawn) had a kinetic solubility greater than 42.8 µg/mL.

Compound `Oc1ccc2oc3c(c2c1C=NCc1ccncc1)CCCC3` showed a kinetic solubility of 16.9 µg/mL (≈ 55.2 µM). Under `O=S(=O)(c1ccc(Cl)cc1)N1CCCc2ccccc21` stands 3.7 µg/mL (≈ 12 µM). Under `O=C(Nc1cccc(Cl)c1N1CCCC1)c1ccco1` stands 1.2 µg/mL (≈ 4.13 µM); under `O=C(COC(=O)c1ccccc1O)NC12CC3CC(CC(C3)C1)C2`, 14.5 µg/mL (≈ 44 µM).

`CC(C)CC(=O)Nc1ccc(-c2cn3cccnc3n2)cc1` displayed a solubility (kinetic) greater than 44.2 µg/mL. Under `COc1ccc(CCN(C)C(=O)c2ccc3c(=O)n4c(nc3c2)CCCCC4)cc1OC` stands greater than 65.3 µg/mL; under `Cc1cc(NC(=O)CN(C)S(=O)(=O)c2cccc(Cl)c2)no1`, 10.5 µg/mL (≈ 30.5 µM); under `CC(CC(=O)NCc1ccc(Cl)cc1)c1ccccc1` (stereo not drawn), 39 µg/mL (≈ 136 µM). Next, `Nc1ncnc2c1nc(Br)n2[C@@H]1O[C@@H]2COP(=O)([O-])O[C@H]2[C@H]1O.[Na+]`: greater than 64.5 µg/mL; `Cc1cc(C)nc(N2CCCC(C(=O)Nc3cccc(Cl)c3)C2)n1` (stereo not drawn): less than 0.2 µg/mL. In turn, `O=C(O)CCCCCNC(=O)OCC1c2ccccc2-c2ccccc21` returned a kinetic solubility of 3.4 µg/mL (≈ 9.62 µM). Under `C/C(=C/c1ccccc1)C(=O)N1CCN(c2ccccc2F)CC1` stands 35.6 µg/mL (≈ 110 µM); under `NS(=O)(=O)c1ccc(CCNC(=O)c2ccc(=O)[nH]c2)cc1`, greater than 48.2 µg/mL; under `COc1ccccc1C1(CCNC(C)c2cccs2)CCOC(C(C)C)C1` (stereo not drawn), 54.4 µg/mL (≈ 140 µM). Under `O=C(c1ccccc1F)n1c2c(c3ccccc31)CCCC2` stands 0.8 µg/mL (≈ 2.73 µM); under `O=c1c(-c2ccco2)[n+]([O-])c2ccccc2n1OCc1c(F)cccc1F`, 3 µg/mL (≈ 8.1 µM); under `Cc1ccc(O)c(CNc2nc3ccccc3[nH]2)c1`, greater than 38 µg/mL. Next, `Cc1cccc(OCCSc2nc(N)cc(N)n2)c1`: greater than 41.5 µg/mL; `CC(=O)c1ccc(N2CCN(C(=O)Nc3cccc(F)c3)CC2)cc1`: 4.8 µg/mL (≈ 14.1 µM); `COc1ccccc1N1CCN(C(=O)c2cc(C)oc2C)CC1`: greater than 47.2 µg/mL. Compound `COC(=O)Cn1cc(/C=C/[N+](=O)[O-])c2ccccc21` came in with a kinetic solubility of 30.6 µg/mL (≈ 118 µM). Next, `N#Cc1ccccc1NC(=S)NC(=O)C1CCC1`: greater than 38.9 µg/mL. In turn, `COc1ccc(C(=O)NC(C)c2cccnc2)cc1S(=O)(=O)N(C)Cc1ccccc1` (stereo not drawn) showed a solubility (kinetic) of 47 µg/mL (≈ 107 µM). With `CCCN1C(=O)C(O)(C2COC(C)(C)CC2=O)c2ccccc21` (stereo not drawn), the solubility (kinetic) is 33.7 µg/mL (≈ 106 µM). Under `COC(=O)c1ccc(COC(=O)CSCC(=O)Nc2ccc(C)cc2C)cc1` stands 16 µg/mL (≈ 39.9 µM).
